Assays:
HO-1 [1] = test: Renal cortical HO-1 mRNA (RT-PCR) and protein (ELISA) after N-Mgb, SnPP or both; format: in vivo, mice
Protocol: (§1) Thirty-two mice were divided into 4 equal groups: (1) control mice; (2) mice treated with 1 mg of N-Mgb injection (as a bolus through the tail vein); (3) mice treated with […] of SnPP (via tail vein); and (4) mice treated with combined N-Mgb 1 SnPP. After either 4 hours (n=16) or 18 hours (n=16), the mice were deeply anesthetized with pentobarbital (50 mg/kg), the abdomen was opened through a midline abdominal incision, and the kidneys were removed. To determine potential effects on extrarenal organs, a liver lobe and the heart were also removed. The tissues were iced and then extracted for protein and RNA (RNeasy Plus Mini; Qiagen, Valencia, Calif.) and subjected to enzyme linked immunosorbent assay (ELISA) and reverse transcriptase polymerase chain reaction (RT-PCR) for HO-1, haptoglobin, and IL-10 protein and messenger RNAs (mRNAs). Zager et al. J Am Soc Nephrol 2014;25:998-1012; Zager et al. Am J Physiol 2012;303:F139-48. As an assessment of renal function, control mice and the 18 hour after N-Mgb+SnPP—treated mice had blood urea nitrogen (BUN) and plasma creatinine levels measured. Additionally, transverse 10% formalin fixed kidney sections ([…]) were cut and stained with hematoxylin and eosin (H&E) and periodic acid Schiff (PAS) to further assess potential injury.

IL-10 = test: Liver IL-10 mRNA and protein after N-Mgb, SnPP or both; format: in vivo, mice; conditions: 18 h after Rx treatment
Protocol: as §1

HO-1 [2] = test: Cardiac HO-1 mRNA and protein after N-Mgb, SnPP or both; format: in vivo, mice; conditions: 18 h after Rx treatment
Protocol: as §1

[3] = Glycerol model of rhabdomyolysis-induced AKI; format: in vivo, mice; conditions: IV pretreatment 18 hours before glycerol; 18 hours after glycerol
Protocol: Assessments of cytoresistance. Glycerol model of rhabdomyolysis-induced AKI. Twenty mice were divided into 4 equal groups (controls, mice treated with N-Mgb, SnPP, and mice treated with N-Mgb+SnPP tail vein injections) as described previously. 18 hours later, the mice were briefly anesthetized with isoflurane and immediately injected with 9 mL/kg of 50% glycerol, administered in equally divided doses into each hind limb. At 18 hours after glycerol injection, the mice were anesthetized with pentobarbital, the abdomen was opened, a blood sample for BUN and creatinine assessments was obtained from the vena cava, and the kidneys were resected. The control post-glycerol group and the N-Mgb+SnPP—pretreated glycerol group had kidney sections stained with H&E.
Calculations and statistics. All values are given as the mean […] standard error of the mean. Statistical comparisons were made by unpaired Student's t test. If multiple comparisons were made, the Bonferroni correction was applied. The severity of renal histologic injury in the glycerol AKI model was graded on a […] (least to most severe tubular necrosis and cast formation observed). The histologic results were compared by Wlcoxon rank sum test. Statistical significance was taken as a P value of <0.05.

[4] = Nath et al., J. Clin. Invest. 1992; cited from earlier work

C=Cc1c2[n-]c(c1C)/C=c1\[n-]/c(c(C)c1C=C)=C\c1[n-]c(c(CCC(=O)O)c1C)C=c1[n-]/c(c(C)c1CCC(=O)O)=C\2.[Sn+4] [SnPP, Sn-protoporphyrin, reference compound]
increase in renal HO-1 mRNA (HO-1 [1]; 4 hours after IV injection, vs controls): only modest increases
increase in renal HO-1 protein (HO-1 [1]; 18 hours post-treatment, vs control values): only relatively small HO-1 protein increases
Liver mRNA IL-10 (IL-10): 0.05 ± 0.01
Cardiac mRNA HO-1 (HO-1 [2]): 0.09 ± 0.03
protection against glycerol-induced AKI (BUN/creatinine levels) [3]: virtually no effect
effect on kidney dysfunction [4]: exacerbated kidney dysfunction

Source: US9844563B2, “Compositions, kits, and methods to induce acquired cytoresistance using stress protein inducers” (FRED HUTCHINSON CANCER RESEARCH CENTER, priority 2014, dated 2017)
